The values that follow come from patent US10660900B2 (priority 2014, dated 2020).

Series [1] relates to human OPRK. The series is described as follows: biochemical. Format: binding.
For series [2], the target named is T1, human OPRM (Homo sapiens, UniProt P35372). On the set-up: expressed in transfected cells; host or cells: CHO-K1 (cell line provided by Dr. Toll, Torrey Pines Institute); membranes prepared in house. Particulars: cited from earlier work.
The target in series [3] is T1, human OPRM. On the set-up: expressed in transfected cells; host or cells: CHO-K1 (cell line provided by Dr. Toll, Torrey Pines Institute); membranes prepared in house. Particulars: cited from earlier work. The source holds these as a separate data set.
For series [4], the target named is T2, OPRK (Homo sapiens, UniProt P41145). Kind of series: biochemical. The class given is binding. Details: expressed in transfected cells; host or cells: CHO-K1. Particulars: Ki.
The target in series [5] is T1, human OPRM. The series is described as follows: biochemical. On the set-up: expressed in transfected cells; host or cells: CHO-K1 (cell line provided by Dr. Toll, Torrey Pines Institute); membranes prepared in house. Particulars: for Emax: read-out: Efficacy (Emax).
Series [6] concerns the target T1, human OPRM. Kind of series: biochemical. On the set-up: expressed in transfected cells; host or cells: CHO-K1 (cell line provided by Dr. Toll, Torrey Pines Institute); membranes prepared in house. Format: binding. Particulars: Ki.
For series [7], the target named is calf OPRK (Bos taurus, UniProt Q2KIP6). Particulars: calf receptor; literature; cited from earlier work.
Series [8] deals with T2, OPRK. The series is described as follows: biochemical. Details: expressed in transfected cells; host or cells: CHO-K1. Particulars: for Emax: read-out: Efficacy (Emax).
The target of series [9] is calf OPRM (Bos taurus, UniProt P79350). Particulars: cited from earlier work.
Series [10] concerns the target opioid receptor delta (OPRD) (Bos taurus, UniProt F1N083). Particulars: printed in the SEM column; literature; cited from earlier work.
Series [11] deals with T2, OPRK. Kind of series: cell-based. Details: host or cells: CHO-K1.
Series [12] is described as follows: Single ascending oral dose pharmacokinetics of noribogaine in healthy volunteers (plasma and urine, LCMSMS). Particulars: for AUC0-216 / AUC0-∞ / Cmax / Tmax / t1/2: mean (SD), n = 6.
Series [13] concerns the target T1, human OPRM. The class given is cell-based. On the set-up: host or cells: CHO-K1.
[14] abbreviates: from literature (or literature/this work) values.
Where [15] appears, read: 30 mg single oral noribogaine, plasma.
Setting [16] is: 60 mg single oral noribogaine, plasma.

Several values for one entry are separate records, joined by “and”; a condition that tells them apart may be missing. Equal values may be shown once. Read-outs that look alike come from different tables or passages of the source.

T1 sequence (P35372 whole entry): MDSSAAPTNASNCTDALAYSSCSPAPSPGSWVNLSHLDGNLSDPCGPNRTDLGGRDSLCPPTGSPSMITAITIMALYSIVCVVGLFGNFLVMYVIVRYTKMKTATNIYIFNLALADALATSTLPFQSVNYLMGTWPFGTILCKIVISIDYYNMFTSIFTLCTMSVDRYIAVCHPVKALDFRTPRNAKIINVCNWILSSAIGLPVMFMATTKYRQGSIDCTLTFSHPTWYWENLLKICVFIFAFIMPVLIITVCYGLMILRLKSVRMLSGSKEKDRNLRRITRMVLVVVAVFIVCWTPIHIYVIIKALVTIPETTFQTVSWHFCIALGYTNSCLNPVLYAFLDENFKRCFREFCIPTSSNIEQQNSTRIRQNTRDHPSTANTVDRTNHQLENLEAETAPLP
Chain of calf OPRM (P79350 whole entry): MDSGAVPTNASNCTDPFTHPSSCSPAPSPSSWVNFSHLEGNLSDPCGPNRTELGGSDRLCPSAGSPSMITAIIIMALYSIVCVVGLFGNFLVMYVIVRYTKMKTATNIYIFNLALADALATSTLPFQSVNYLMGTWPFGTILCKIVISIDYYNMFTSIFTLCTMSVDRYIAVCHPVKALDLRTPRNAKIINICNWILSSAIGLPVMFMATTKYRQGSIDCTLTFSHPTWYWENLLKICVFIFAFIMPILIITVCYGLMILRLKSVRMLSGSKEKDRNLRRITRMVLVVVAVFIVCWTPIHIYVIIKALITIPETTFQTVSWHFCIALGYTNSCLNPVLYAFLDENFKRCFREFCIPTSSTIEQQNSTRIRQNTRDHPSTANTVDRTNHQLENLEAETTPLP
T2 sequence (P41145 whole entry): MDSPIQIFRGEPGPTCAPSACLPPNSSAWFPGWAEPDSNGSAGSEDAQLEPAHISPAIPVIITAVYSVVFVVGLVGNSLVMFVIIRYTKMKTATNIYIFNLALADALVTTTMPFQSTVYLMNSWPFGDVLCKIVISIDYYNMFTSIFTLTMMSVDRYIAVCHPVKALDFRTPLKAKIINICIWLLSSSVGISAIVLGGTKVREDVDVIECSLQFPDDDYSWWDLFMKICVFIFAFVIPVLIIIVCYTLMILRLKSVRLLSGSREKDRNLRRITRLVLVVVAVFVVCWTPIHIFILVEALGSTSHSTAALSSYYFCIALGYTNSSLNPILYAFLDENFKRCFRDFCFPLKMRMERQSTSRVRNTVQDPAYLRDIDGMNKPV
Chain of calf OPRK (Q2KIP6 whole entry): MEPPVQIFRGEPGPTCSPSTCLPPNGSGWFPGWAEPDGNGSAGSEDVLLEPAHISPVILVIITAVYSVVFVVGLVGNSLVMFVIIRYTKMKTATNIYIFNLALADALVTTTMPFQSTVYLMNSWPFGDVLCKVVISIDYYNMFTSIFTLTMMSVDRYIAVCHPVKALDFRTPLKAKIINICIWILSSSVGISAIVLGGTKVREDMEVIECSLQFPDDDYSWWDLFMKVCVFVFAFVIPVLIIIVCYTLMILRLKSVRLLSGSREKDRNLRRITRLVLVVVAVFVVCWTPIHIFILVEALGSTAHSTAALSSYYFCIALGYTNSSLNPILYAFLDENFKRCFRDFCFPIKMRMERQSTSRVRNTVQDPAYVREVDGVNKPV
Chain of opioid receptor delta (OPRD) (F1N083 1-372): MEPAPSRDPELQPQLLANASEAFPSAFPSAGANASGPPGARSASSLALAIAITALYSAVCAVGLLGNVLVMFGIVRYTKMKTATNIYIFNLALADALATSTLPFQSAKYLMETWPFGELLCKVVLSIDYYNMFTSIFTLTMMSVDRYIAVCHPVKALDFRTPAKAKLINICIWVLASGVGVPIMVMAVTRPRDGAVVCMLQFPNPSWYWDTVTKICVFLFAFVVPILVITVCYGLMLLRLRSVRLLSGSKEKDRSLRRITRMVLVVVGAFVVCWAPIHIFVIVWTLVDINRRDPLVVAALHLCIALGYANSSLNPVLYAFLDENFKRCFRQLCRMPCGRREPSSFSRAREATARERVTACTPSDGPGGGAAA

As a reminder, the Ki is a measure of affinity in units of concentration, obtained from inhibition or displacement. Broadly, the pKi is the Ki on a negative log10 scale, so that one unit is a factor of ten. For orientation: EC50 means the concentration needed to bring the measured effect to its halfway point. For the molecule `NC(N)=Nc1ccc2c3c([nH]c2c1)[C@@H]1Oc2c(O)ccc4c2[C@@]12CCN(CC1CC1)[C@H](C4)[C@]2(O)C3` [6′GNTI, 6′-guanidinonaltrindole], the “ΔpKi = pKi(OPRK) − pKi(OPRM), OPRK Specificity” value (shortened to “ΔpKi = pKi(OPRK) − pKi(OPRM)”) in series [1] (setting [14]) stood at 1.84. Also, in [2], the Ki is 82 nM and the pKi is listed as 7.1. Further, in series [3] (activation, literature), the EC50 was above 1000 nM and the Efficacy is on record as 0~ %.

A word on the Emax: it is the greatest response seen or fitted, relative to the assay's reference. In the case of `COCCC1CC2CN3CCc4c([nH]c5ccccc45)C(C(=O)OC)(C2)C13` (stereo not shown) [18-MC, 18-methoxycoronaridine, reference compound], the Ki in series [4] (Table 9 summary column, value of this work) is 1800 nM; in series [4] ([3H]-U69,593), 1840 ± 120 nM; in series [6] it was 2260 nM and 2360 nM; in series [7], 5100 nM; in series [8] (Ke) it was 2800 nM and 2900 nM and 4300 nM. Besides, the “stimulation of the OPRM G-protein pathway” value in [5] is “failed to stimulate the OPRM G-protein pathway”. Also, the Emax in series [5] and in series [8] was below 5% in each case. Moreover, the “ΔpKi = pKi(OPRK) − pKi(OPRM)” value in series [1] (setting [14]) is recorded as −0.7; in series [1] (from values of this work), 0.1. Also, the “affinity at human OPRK versus OPRM” value in [1] (in these assays) was “equi-affine to both human OPRK and OPRM”. Further, the pKi in [7] is reported as 5.3; in [9] (calf receptor, literature) it was 6.0. In addition, the EC50 in series [8] was around 16000 nM. Besides, the “Efficacy (inhibition)” value in [8] is −100%. Moreover, in series [8], the “e-coupling (pKi-pEC50)” value is recorded as 0.94~. In addition, in series [8], the “e-coupling (pKi-pKe)” value stood at 0.39. Further, the “stimulation of [35S]GTPγS binding to OPRK” value in series [8] is recorded as “failed to stimulate”. The “reported selectivity at OPRM” value in series [9] (Glick, Maisonneuve et al. 2000) is 5 ×.

Consider `C[C@@H](NC(=O)[C@@H](N)Cc1ccc(O)cc1)C(=O)NCC(=O)N(C)[C@@H](Cc1ccccc1)C(=O)NCCO` [DAMGO, [D-Ala2, NMe-Phe4, Gly-ol5]-enkephalin], for which the “ΔpKi = pKi(OPRK) − pKi(OPRM)” value in series [1] (setting [14]) was below −3.

Take `CCC1CC2CC3c4[nH]c5ccc(OC)cc5c4CCN(C2)C13` (stereo not shown) [Ibogaine, ibogaine, reference compound]: in [5], the “stimulation of the OPRM G-protein pathway” value is listed as “failed to stimulate the OPRM G-protein pathway” and the Emax is -2.9%. Further, in series [6], the affinity corresponds to a Ki of 6920 ± 830 nM. Also, the “Ki at OPRD” value in series [10] is recorded as “(OPRD − N.Q.)”. Besides, in series [9] (calf receptor, literature), the Ki is 11000 nM and the pKi is on record as 5.0.

As to `C=C1CC[C@@]2(O)[C@H]3Cc4ccc(O)c5c4[C@@]2(CCN3CC2CC2)[C@H]1O5` [Nalmefene, nalmefene, reference compound], in series [8], the “Efficacy (inhibition)” value is listed as −65%, the “e-coupling (pKi-pEC50)” value is 0.92, the “e-coupling (pKi-pKe)” value came out at 0.23 and the “own reduced signal level to which rival agonist signal is leveled down” value came out at 30%. Besides, the Emax in [8] is 35 ± 4.7%.

As to `Oc1ccc2c3c1O[C@H]1c4[nH]c5c(c4C[C@@]4(O)[C@@H](C2)N(CC2CC2)CC[C@]314)C[C@@]1(O)[C@H]2Cc3ccc(O)c4c3[C@@]1(CCN2CC1CC1)[C@H]5O4` [NorBNI, nor-binaltorphimine, reference compound], the “ΔpKi = pKi(OPRK) − pKi(OPRM)” value in [1] (setting [14]) came out at 2.0. Besides, the “Efficacy (inhibition)” value in series [8] and in [11] (inhibitory component against Dynorphin A) was −100% throughout. The “e-coupling (pKi-pKe)” value is on record as −0.1 in series [8] and 0.27 in series [11] (inhibitory component).

With `CC[C@H]1C[C@@H]2C[C@H]3c4[nH]c5ccc(OC6OC(C(=O)O)C(O)C(O)C6O)cc5c4CCN(C2)[C@@H]13` (stereo partly shown) [Noribogaine glucuronide, noribogaine glucuronide], in [12] (30 mg and 60 mg dose groups), the “proportion of noribogaine glucuronide Cmax and AUC relative to noribogaine” value is given as 3-4%. For the same molecule, in [12] (setting [15]), the AUC0-216 is listed as 25.7 (9.1) ng · hr/ml, the “AUC0-∞” value is 25.8 (9.3) ng · hr/ml, the Cmax is reported as 1.8 (0.6) ng/ml and the Tmax is 3.0 (0.6) hr. In addition, in series [12] (setting [15]), the t1/2 is 20.6 (4.9) hr. Besides, in series [12] (setting [16]), the AUC0-216 is recorded as 65.0 (21.5) ng · hr/ml, the “AUC0-∞” value is 67.1 (21.9) ng · hr/ml, the Cmax is 4.1 (1.2) ng/ml and the Tmax is 3.8 (1.2) hr. In [12] (setting [16]), the t1/2 is 23.1 (3.0) hr. Moreover, in series [12] (plasma, 30 mg and 60 mg noribogaine), the “time by which detected in all subjects” value was at most 0.75 h. In addition, in series [12] (plasma, across dose groups), the Mean half-life was 21 to 23 h and the “time of peak concentrations after oral noribogaine dosing” value is 3 to 4 h.

For the molecule [Met]-Enkephalin, the Efficacy in series [13] is recorded as 100%; in series [3], around 95%. Besides, the “ΔpKi = pKi(OPRK) − pKi(OPRM)” value in series [1] is on record as below −3.
